Measurements as given in ChEMBL document CHEMBL1201862, “PubChem BioAssay data set” (2004).
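A five-concentration, 48-hour dose response in 96-well plates underlies each endpoint, interpolated linearly between surrounding concentrations. GI50: concentration for 50% inhibition of growth.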 The source made the active and inactive calls. Cut-off read from the data, not from the text of the source: active = GI50 up to about 1.1 µM and inactive = higher.

Experiments:
Experiment in all cases: growth of human tumour cells (NCI), 48 h
MDA-N = test system: MDA-N
COLO 205 = test system: COLO 205
A549 = test system: A549
IGROV-1 = test system: IGROV-1
OVCAR-4 = test system: OVCAR-4
TK-10 = test system: TK-10
K562 = test system: K562
SK-MEL-28 = test system: SK-MEL-28
UO-31 = test system: UO-31
SN12C = test system: SN12C
SK-MEL-5 = test system: SK-MEL-5
ACHN = test system: ACHN
786-0 = test system: 786-0
NCI/ADR-RES = test system: NCI/ADR-RES
SNB-75 = test system: SNB-75
PC-3 = test system: PC-3
SR = test system: SR
NCI-H226 = test system: NCI-H226
EKVX = test system: EKVX
KM12 = test system: KM12

Structure (SMILES)	GI50 (MDA-N)	GI50 (COLO 205)	GI50 (A549)	GI50 (IGROV-1)	GI50 (OVCAR-4)	GI50 (TK-10)	GI50 (K562)	GI50 (SK-MEL-28)	GI50 (UO-31)	GI50 (SN12C)	GI50 (SK-MEL-5)	GI50 (ACHN)	GI50 (786-0)	GI50 (NCI/ADR-RES)	GI50 (SNB-75)	GI50 (PC-3)	GI50 (SR)	GI50 (NCI-H226)	GI50 (EKVX)	GI50 (KM12)
CN1C(=O)N(C)C2(CCN(CC(CC3OCCO3)c3ccc(F)cc3)CC2)C1=O (centres undefined)	> 100 µM (inactive)	> 100 µM (inactive)	> 100 µM (inactive)	> 100 µM (inactive)	> 100 µM (inactive)	> 100 µM (inactive)	> 100 µM (inactive)	> 100 µM (inactive)	> 100 µM (inactive)	> 100 µM (inactive)	> 100 µM (inactive)	> 100 µM (inactive)	> 100 µM (inactive)	> 100 µM (inactive)	> 100 µM (inactive)	> 100 µM (inactive)	> 100 µM (inactive)	> 100 µM (inactive)	> 100 µM (inactive)	
Nc1ccc2nc(-c3ccccn3)c(-c3ccccn3)nc2c1	> 100 µM (inactive)	> 100 µM (inactive)	> 100 µM (inactive)	> 100 µM (inactive)	> 100 µM (inactive)	> 100 µM (inactive)	> 100 µM (inactive)	> 100 µM (inactive)	> 100 µM (inactive)	> 100 µM (inactive)	> 100 µM (inactive)	> 100 µM (inactive)	> 100 µM (inactive)	> 100 µM (inactive)	> 100 µM (inactive)	> 100 µM (inactive)	> 100 µM (inactive)	> 100 µM (inactive)	> 100 µM (inactive)	> 100 µM (inactive)
N#Cc1c(N2CCCC2)ncn(-c2ccccc2)c1=S	> 100 µM (inactive)	> 100 µM (inactive)	> 100 µM (inactive)	> 100 µM (inactive)	> 100 µM (inactive)	> 100 µM (inactive)	> 100 µM (inactive)	> 100 µM (inactive)	> 100 µM (inactive)	> 100 µM (inactive)	> 100 µM (inactive)	> 100 µM (inactive)	> 100 µM (inactive)	> 100 µM (inactive)	94.8 µM (inactive)	> 100 µM (inactive)	> 100 µM (inactive)	> 100 µM (inactive)	> 100 µM (inactive)	> 100 µM (inactive)
COc1ccc(C(=O)/C=C/c2ccc(OCCSCCCCCCCCCCSCCOc3ccc(/C=C/C(=O)c4ccc(OC)cc4)cc3)cc2)cc1	< 0.01 µM (active)	> 100 µM (inactive)	> 100 µM (inactive)	> 100 µM (inactive)	> 100 µM (inactive)	> 100 µM (inactive)	> 100 µM (inactive)	> 100 µM (inactive)	> 100 µM (inactive)	> 100 µM (inactive)	> 100 µM (inactive)	> 100 µM (inactive)	> 100 µM (inactive)	> 100 µM (inactive)	> 100 µM (inactive)	> 100 µM (inactive)	> 100 µM (inactive)	> 100 µM (inactive)	> 100 µM (inactive)	> 100 µM (inactive)
CC(C)[C@@H]1CC[C@@H](C)C[C@H]1OC(=O)/C=C1\C(C(=O)O[C@@H]2C[C@H](C)CC[C@H]2C(C)C)[C@H]2C=C[C@@H]1O2 (some centres undefined)	83.6 µM (inactive)	64.3 µM (inactive)	80.2 µM (inactive)	> 100 µM (inactive)	> 100 µM (inactive)	> 100 µM (inactive)	33.4 µM (inactive)	> 100 µM (inactive)	> 100 µM (inactive)	57.8 µM (inactive)	40.4 µM (inactive)	27.1 µM (inactive)	66.5 µM (inactive)	> 100 µM (inactive)	> 100 µM (inactive)	37.3 µM (inactive)	43 µM (inactive)	38.3 µM (inactive)	63.4 µM (inactive)	87.7 µM (inactive)
S=C(NCc1ccccc1)N/N=C/c1ccccn1	8.53 µM (inactive)	0.104 µM (active)	4.29 µM (inactive)	1.58 µM (inactive)	3.01 µM (inactive)	12.9 µM (inactive)	0.0815 µM (active)	5.62 µM (inactive)	1.25 µM (inactive)	4.31 µM (inactive)	3.52 µM (inactive)	1.27 µM (inactive)	1.59 µM (inactive)	1.88 µM (inactive)	3.91 µM (inactive)	0.762 µM (active)	0.29 µM (active)	2.01 µM (inactive)	1.82 µM (inactive)	4.91 µM (inactive)
Cc1ccc(N/N=C2\C3=C(CCC(C)(C)O3)C(=O)c3ccccc32)cc1	4.43 µM (inactive)	24.7 µM (inactive)	16 µM (inactive)	29.1 µM (inactive)	18.2 µM (inactive)	26.8 µM (inactive)	32.4 µM (inactive)	21.9 µM (inactive)	23.4 µM (inactive)	14.6 µM (inactive)	4.17 µM (inactive)	23.9 µM (inactive)	28 µM (inactive)	25.6 µM (inactive)	19.2 µM (inactive)	37.6 µM (inactive)	16.5 µM (inactive)	35.2 µM (inactive)	25.5 µM (inactive)	21.8 µM (inactive)
